# Laboratory results taken from patent US20210251963A1, “UREA DERIVATIVES FOR USE IN THE TREATMENT OF SUBJECTS WITH ELEVATED EXPRESSION AND/OR ACTIVITY OF SRPK1” (Scandion Oncology A/S, priority 2018, published 2021).
# Legend:
# Test in all cases: Premier Screen kinase activity screening (33P ATP filter binding)
# Assay type in all cases: biochemical
# Conditions in all cases: 10 μM SCO-101, mean of assay duplicates, read-out: Kinase activity (percentage of DMSO control)
# p38g MAPK = target: T1, p38g MAPK (Homo sapiens, UniProt P53778)
# T1 construct: purchased MRC Dundee, Premier Screen (contract screening service)
# T1 sequence (P53778 whole entry): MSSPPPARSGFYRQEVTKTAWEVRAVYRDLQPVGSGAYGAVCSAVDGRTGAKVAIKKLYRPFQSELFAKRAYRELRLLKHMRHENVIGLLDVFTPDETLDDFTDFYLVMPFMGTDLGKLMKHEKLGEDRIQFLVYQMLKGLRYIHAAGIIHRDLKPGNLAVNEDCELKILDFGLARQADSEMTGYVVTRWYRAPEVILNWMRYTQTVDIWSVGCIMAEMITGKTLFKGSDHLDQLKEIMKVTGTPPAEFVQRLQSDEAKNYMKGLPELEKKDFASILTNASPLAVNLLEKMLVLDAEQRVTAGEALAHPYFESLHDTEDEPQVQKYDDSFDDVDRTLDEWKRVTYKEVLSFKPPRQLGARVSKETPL
# Text: (§1) The kinase activity screening was done at MRC in Dundee. The screen was a so-called “Premier Screen” with 140 kinases. More specific information can be found here: http://www.kinase-screen.mrc.ac.uk/services/premier-screen
# (§2) The method is based on a radioactive filter binding assay using 33P ATP (Hastie, et al 2006. Nat Protoc. 2006; 1(2):968-71; Bain, et al 2007. Biochem J. 2007 Dec. 15; 408(3):297-315). This method is sensitive, accurate and provides a direct measure of kinase enzyme activity. A concentration of 10 μM SCO-101 was used.
# (§3) In the table below, the data is portrayed as the mean percentage activity of assay duplicates and a standard deviation. These percentage activities were calculated in comparison to DMSO controls. 10 μM SCO-101 reduced the activity of SRPK1 to 6% of the DMSO control.
# PKCa = PKCa (Homo sapiens, UniProt P17252)
# Text: as §1, §2, §3
# HIPK3 = HIPK3 (Homo sapiens, UniProt Q9H422)
# Sequence of HIPK3 (Q9H422 whole entry, species assumed): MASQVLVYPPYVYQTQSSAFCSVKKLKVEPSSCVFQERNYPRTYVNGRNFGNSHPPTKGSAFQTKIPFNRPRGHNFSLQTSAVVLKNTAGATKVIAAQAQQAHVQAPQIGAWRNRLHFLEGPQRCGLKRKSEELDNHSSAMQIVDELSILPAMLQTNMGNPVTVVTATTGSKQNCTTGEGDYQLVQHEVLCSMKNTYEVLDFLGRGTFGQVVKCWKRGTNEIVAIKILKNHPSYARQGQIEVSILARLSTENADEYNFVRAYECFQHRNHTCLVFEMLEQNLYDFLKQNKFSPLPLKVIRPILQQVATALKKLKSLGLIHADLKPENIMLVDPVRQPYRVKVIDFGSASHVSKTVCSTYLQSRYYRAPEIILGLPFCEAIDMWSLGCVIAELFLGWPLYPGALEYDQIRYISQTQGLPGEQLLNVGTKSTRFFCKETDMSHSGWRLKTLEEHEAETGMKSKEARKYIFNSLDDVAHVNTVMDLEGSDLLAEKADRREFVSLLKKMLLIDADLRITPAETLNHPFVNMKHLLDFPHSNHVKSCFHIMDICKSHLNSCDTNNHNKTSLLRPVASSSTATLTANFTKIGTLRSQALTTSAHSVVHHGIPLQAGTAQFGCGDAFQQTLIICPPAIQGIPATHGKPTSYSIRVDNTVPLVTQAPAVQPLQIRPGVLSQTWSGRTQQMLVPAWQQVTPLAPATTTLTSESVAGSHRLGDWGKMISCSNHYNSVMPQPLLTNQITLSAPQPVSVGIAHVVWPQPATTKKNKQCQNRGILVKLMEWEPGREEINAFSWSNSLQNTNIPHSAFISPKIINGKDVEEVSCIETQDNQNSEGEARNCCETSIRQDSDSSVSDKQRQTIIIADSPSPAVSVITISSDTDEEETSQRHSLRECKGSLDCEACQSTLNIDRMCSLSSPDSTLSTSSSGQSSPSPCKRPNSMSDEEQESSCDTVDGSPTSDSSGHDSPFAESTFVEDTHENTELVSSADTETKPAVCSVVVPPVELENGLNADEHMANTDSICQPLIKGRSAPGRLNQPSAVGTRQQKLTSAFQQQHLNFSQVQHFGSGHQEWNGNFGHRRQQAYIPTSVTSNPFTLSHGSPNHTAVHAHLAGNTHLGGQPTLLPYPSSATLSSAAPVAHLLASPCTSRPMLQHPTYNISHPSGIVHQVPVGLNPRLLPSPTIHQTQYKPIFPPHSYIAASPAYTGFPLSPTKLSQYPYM
# Text: as §1, §2, §3
# DYRK1A = target: T2, DYRK1A (Homo sapiens, UniProt Q13627)
# T2 construct: purchased MRC Dundee, Premier Screen (contract screening service)
# Text: as §1, §2, §3
# CDK2-Cyclin A = CDK2-Cyclin A (Homo sapiens, UniProt P24941)
# Text: as §1, §2, §3
# FGF-R1 = target: T3, FGF-R1 (Homo sapiens, UniProt P11362)
# T3 construct: purchased MRC in Dundee (Premier Screen service)
# Text: as §1, §2, §3
# Aurora A = target: T4, Aurora A (Homo sapiens, UniProt O14965)
# T4 construct: MRC in Dundee (screening service)
# Text: as §1, §2, §3
# SIK2 = target: T5, SIK2 (Homo sapiens, UniProt Q9H0K1)
# T5 construct: MRC in Dundee (screening service)
# T5 sequence (Q9H0K1 whole entry, species assumed): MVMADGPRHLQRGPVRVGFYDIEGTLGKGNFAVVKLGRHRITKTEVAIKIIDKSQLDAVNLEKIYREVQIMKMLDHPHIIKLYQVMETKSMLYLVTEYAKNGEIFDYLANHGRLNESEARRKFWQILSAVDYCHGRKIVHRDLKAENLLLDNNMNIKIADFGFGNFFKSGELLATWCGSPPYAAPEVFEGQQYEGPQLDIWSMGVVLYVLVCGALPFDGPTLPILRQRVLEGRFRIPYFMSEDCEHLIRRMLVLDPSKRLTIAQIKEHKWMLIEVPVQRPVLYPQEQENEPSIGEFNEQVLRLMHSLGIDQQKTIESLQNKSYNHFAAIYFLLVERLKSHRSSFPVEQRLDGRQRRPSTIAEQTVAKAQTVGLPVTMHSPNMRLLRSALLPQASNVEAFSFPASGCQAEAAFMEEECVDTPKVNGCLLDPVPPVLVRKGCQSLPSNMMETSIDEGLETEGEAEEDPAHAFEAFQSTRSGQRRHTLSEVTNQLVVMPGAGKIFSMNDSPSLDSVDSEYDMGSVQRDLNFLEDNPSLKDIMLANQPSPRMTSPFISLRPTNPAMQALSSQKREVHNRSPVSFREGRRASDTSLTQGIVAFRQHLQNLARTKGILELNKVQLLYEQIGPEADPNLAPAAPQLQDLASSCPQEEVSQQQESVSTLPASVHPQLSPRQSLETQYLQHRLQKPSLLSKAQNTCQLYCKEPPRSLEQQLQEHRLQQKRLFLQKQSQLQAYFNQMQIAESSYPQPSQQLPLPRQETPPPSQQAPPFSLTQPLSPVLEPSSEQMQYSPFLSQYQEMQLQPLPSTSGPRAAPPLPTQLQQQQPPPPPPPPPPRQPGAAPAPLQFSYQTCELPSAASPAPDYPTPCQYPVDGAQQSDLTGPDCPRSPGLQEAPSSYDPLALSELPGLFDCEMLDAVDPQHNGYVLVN
# Text: as §1, §2, §3
# MNK1 = target: T6, MNK1 (Homo sapiens, UniProt Q9BUB5)
# T6 construct: MRC in Dundee (screening service)
# Text: as §1, §2, §3
# MARK2 = target: T7, MARK2 (Homo sapiens, UniProt Q7KZI7)
# T7 construct: MRC Dundee (screening service)
# T7 sequence (Q7KZI7 whole entry, species assumed): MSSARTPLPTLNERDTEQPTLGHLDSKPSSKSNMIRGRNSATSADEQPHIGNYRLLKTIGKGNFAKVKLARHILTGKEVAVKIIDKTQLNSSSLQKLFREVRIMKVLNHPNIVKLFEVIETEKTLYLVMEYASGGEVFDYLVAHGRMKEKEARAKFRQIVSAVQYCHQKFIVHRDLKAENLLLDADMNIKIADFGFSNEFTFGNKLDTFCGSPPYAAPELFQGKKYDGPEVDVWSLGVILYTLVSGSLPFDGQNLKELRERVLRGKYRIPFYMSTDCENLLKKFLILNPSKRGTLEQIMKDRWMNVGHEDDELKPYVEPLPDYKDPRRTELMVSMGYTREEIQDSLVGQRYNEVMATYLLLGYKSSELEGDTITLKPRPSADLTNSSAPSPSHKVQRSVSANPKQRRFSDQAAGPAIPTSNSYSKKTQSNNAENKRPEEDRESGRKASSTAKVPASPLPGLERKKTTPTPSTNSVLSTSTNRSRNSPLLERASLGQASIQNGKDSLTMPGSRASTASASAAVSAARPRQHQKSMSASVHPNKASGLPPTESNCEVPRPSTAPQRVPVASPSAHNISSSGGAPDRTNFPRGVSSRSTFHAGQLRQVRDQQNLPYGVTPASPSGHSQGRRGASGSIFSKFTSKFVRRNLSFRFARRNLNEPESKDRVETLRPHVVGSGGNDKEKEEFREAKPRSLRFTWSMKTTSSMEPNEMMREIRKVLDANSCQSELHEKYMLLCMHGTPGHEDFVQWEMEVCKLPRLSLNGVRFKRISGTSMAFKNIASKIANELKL
# Text: as §1, §2, §3
# Aurora B = target: T8, Aurora B (Homo sapiens, UniProt Q96GD4)
# T8 construct: purchased MRC in Dundee (Premier Screen service)
# Text: as §1, §2, §3
# PKBa = target: T9, PKBa (Homo sapiens, UniProt P31749)
# T9 construct: purchased MRC in Dundee (Premier Screen service)
# T9 sequence (P31749 whole entry): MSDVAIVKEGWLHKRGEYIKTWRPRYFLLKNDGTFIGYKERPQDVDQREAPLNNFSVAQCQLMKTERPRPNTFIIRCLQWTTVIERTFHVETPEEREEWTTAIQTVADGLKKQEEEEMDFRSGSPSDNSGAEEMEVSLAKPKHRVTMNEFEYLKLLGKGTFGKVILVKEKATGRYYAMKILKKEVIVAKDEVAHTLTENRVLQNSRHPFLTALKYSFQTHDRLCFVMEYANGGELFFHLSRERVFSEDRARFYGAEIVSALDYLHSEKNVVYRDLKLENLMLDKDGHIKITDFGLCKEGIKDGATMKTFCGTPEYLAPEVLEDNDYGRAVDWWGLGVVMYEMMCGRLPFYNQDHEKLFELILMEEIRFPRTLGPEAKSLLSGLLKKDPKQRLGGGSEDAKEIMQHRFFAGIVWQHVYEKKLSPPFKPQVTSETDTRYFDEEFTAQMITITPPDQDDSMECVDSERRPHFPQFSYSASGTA
# Text: as §1, §2, §3
# S6K1 = target: T10, S6K1 (Homo sapiens, UniProt P23443)
# T10 construct: MRC in Dundee (screening service)
# Text: as §1, §2, §3
# PAK5 = PAK5 (Homo sapiens, UniProt Q9P286)
# Text: as §1, §2, §3
# PKA = target: T11, PKA (Homo sapiens, UniProt P17612)
# T11 construct: purchased MRC Dundee, Premier Screen (contract screening service)
# Text: as §1, §2, §3
# DAPK1 = DAPK1 (Homo sapiens, UniProt P53355)
# Text: as §1, §2, §3
# TTK = target: T12, TTK (Homo sapiens, UniProt P33981)
# T12 construct: MRC in Dundee (screening service)
# Text: as §1, §2, §3
# MST2 = target: T13, MST2 (Homo sapiens, UniProt Q13188)
# T13 construct: purchased MRC in Dundee (Premier Screen service)
# Text: as §1, §2, §3
# MAPKAP-K3 = target: T14, MAPKAP-K3 (Homo sapiens, UniProt Q16644)
# T14 construct: MRC in Dundee (screening service)
# Text: as §1, §2, §3
# p38d MAPK = p38d MAPK (Homo sapiens, UniProt O15264)
# Sequence of p38d MAPK (O15264 whole entry): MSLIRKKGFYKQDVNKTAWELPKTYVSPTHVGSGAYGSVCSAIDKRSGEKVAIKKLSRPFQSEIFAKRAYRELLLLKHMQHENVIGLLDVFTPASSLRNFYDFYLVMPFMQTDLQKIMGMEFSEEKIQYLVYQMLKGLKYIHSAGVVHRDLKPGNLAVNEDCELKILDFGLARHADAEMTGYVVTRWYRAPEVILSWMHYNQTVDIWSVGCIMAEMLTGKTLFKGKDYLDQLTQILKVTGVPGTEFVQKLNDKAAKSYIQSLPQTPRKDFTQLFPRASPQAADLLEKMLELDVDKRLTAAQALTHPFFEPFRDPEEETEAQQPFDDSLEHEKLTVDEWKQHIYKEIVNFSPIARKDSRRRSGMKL
# Text: as §1, §2, §3
# PIM3 = target: T15, PIM3 (Homo sapiens, UniProt Q86V86)
# T15 construct: purchased MRC in Dundee (Premier Screen service)
# Text: as §1, §2, §3
# ERK5 = target: T16, ERK5 (Homo sapiens, UniProt Q13164)
# T16 construct: MRC in Dundee (screening service)
# Text: as §1, §2, §3
# JNK2 = target: T17, JNK2 (Homo sapiens, UniProt P45984)
# T17 construct: purchased MRC Dundee, Premier Screen (contract screening service)
# Text: as §1, §2, §3
# CAMK1 = target: T18, CAMK1 (Homo sapiens, UniProt Q14012)
# T18 construct: purchased MRC in Dundee (Premier Screen service)
# Text: as §1, §2, §3
# BRSK2 = target: T19, BRSK2 (Homo sapiens, UniProt Q8IWQ3)
# T19 construct: MRC in Dundee (screening service)
# Text: as §1, §2, §3
# CHK2 = CHK2 (Homo sapiens, UniProt O96017)
# Text: as §1, §2, §3
# PKD1 = PKD1 (Homo sapiens, UniProt Q15139)
# Text: as §1, §2, §3
# PKCz = target: T20, PKCz (Homo sapiens, UniProt Q05513)
# T20 construct: MRC Dundee (screening service)
# Text: as §1, §2, §3
# PAK2 = target: T21, PAK2 (Homo sapiens, UniProt Q13177)
# T21 construct: MRC in Dundee (screening service)
# Text: as §1, §2, §3
# YES1 = target: T22, YES1 (Homo sapiens, UniProt P07947)
# T22 construct: MRC Dundee (screening service)
# Text: as §1, §2, §3
# MAP4K3 = MAP4K3 (Homo sapiens, UniProt Q8IVH8)
# Text: as §1, §2, §3
# Src = target: T23, Src (Homo sapiens, UniProt P12931)
# T23 construct: purchased MRC Dundee, Premier Screen (contract screening service)
# Text: as §1, §2, §3
# MSK1 = target: T24, MSK1 (Homo sapiens, UniProt O75582)
# T24 construct: MRC Dundee (screening service)
# T24 sequence (O75582 whole entry, species assumed): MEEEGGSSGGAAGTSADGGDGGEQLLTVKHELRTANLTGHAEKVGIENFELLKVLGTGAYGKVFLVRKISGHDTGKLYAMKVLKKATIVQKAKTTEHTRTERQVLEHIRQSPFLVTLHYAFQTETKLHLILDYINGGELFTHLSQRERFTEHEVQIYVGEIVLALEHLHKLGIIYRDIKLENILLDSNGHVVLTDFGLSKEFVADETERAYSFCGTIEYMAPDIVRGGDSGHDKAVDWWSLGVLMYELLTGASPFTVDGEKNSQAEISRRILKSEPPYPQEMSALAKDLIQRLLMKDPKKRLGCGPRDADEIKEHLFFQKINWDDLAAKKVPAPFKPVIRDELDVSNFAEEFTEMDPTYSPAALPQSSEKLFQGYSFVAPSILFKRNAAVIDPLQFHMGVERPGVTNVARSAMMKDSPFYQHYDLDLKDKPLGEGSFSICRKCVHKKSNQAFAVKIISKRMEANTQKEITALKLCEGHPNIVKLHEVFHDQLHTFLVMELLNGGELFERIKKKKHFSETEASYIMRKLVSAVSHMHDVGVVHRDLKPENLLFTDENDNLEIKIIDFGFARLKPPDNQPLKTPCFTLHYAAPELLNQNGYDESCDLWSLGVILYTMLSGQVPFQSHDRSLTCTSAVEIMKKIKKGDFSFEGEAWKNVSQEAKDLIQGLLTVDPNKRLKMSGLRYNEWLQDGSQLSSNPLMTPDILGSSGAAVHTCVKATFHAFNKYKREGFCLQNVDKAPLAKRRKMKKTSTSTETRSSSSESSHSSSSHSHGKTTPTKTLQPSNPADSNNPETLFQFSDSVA
# Text: as §1, §2, §3
# MKK6 = target: T25, MKK6 (Homo sapiens, UniProt P52564)
# T25 construct: purchased MRC Dundee, Premier Screen (contract screening service)
# Text: as §1, §2, §3
# ERK1 = target: T26, ERK1 (Homo sapiens, UniProt P27361)
# T26 construct: purchased MRC in Dundee (Premier Screen service)
# Text: as §1, §2, §3
# OSR1 = target: T27, OSR1 (Homo sapiens, UniProt O95747)
# T27 construct: MRC in Dundee (screening service)
# Text: as §1, §2, §3
smiles,measurement,setting,value
O=C(Nc1cc(C(F)(F)F)cc(C(F)(F)F)c1)Nc1ccc(Br)cc1-c1nnn[nH]1 [SCO-101],remaining activity at 10 µM,p38g MAPK,110%
same,remaining activity at 10 µM,PKCa,116%
same,remaining activity at 10 µM,HIPK3,121%
same,remaining activity at 10 µM,DYRK1A,112%
same,remaining activity at 10 µM,CDK2-Cyclin A,113%
same,remaining activity at 10 µM,FGF-R1,123%
same,remaining activity at 10 µM,Aurora A,94%
same,remaining activity at 10 µM,SIK2,81%
same,remaining activity at 10 µM,MNK1,91%
same,remaining activity at 10 µM,MARK2,100%
same,remaining activity at 10 µM,Aurora B,61%
same,remaining activity at 10 µM,PKBa,126%
same,remaining activity at 10 µM,S6K1,92%
same,remaining activity at 10 µM,PAK5,121%
same,remaining activity at 10 µM,PKA,106%
same,remaining activity at 10 µM,DAPK1,112%
same,remaining activity at 10 µM,TTK,88%
same,remaining activity at 10 µM,MST2,146%
same,remaining activity at 10 µM,MAPKAP-K3,85%
same,remaining activity at 10 µM,p38d MAPK,113%
same,remaining activity at 10 µM,PIM3,49%
same,remaining activity at 10 µM,ERK5,90%
same,remaining activity at 10 µM,JNK2,105%
same,remaining activity at 10 µM,CAMK1,57%
same,remaining activity at 10 µM,BRSK2,81%
same,remaining activity at 10 µM,CHK2,114%
same,remaining activity at 10 µM,PKD1,122%
same,remaining activity at 10 µM,PKCz,101%
same,remaining activity at 10 µM,PAK2,83%
same,remaining activity at 10 µM,YES1,99%
same,remaining activity at 10 µM,MAP4K3,113%
same,remaining activity at 10 µM,Src,105%
same,remaining activity at 10 µM,MSK1,101%
same,remaining activity at 10 µM,MKK6,108%
same,remaining activity at 10 µM,ERK1,137%
same,remaining activity at 10 µM,OSR1,94%
